Laboratory results: ChEMBL document CHEMBL1140538, “Pyrazolo[1,5-a]pyrimidines as orally available inhibitors of cyclin-dependent kinase 2” (Bioorg Med Chem Lett, 2007)
pIC50: −log10 of the molar value. “And” between values parts separate entries of the source, which are not always exact repeats. Equal values may be shown once.

Key:
[1] = Inhibition of human CDK2/cyclin A
[2] = target: Glycogen synthase kinase-3 beta (Homo sapiens, UniProt P49841); experiment: Inhibition of human GSK3-beta
[3] = Effect on cell proliferation assessed as radiolabeled thymidine incorporation in cell-based assay; assay type: functional; details: Homo sapiens
[4] = Inhibition of human MAPK
Mus musculus = species on record: Mus musculus; experiment: Protein binding in mouse; assay type: ADME, organism-based; details: in vivo
Rhesus monkey = experiment: Protein binding in monkey; assay type: ADME, organism-based, Macaca mulatta; details: in vivo
[5] = AUC in monkey at 10 mg/kg; assay type: ADME, organism-based, Macaca mulatta; design: dose 10 mg/kg; details: rhesus monkey, plasma
[6] = Cmax in monkey at 10 mg/kg; assay type: ADME, organism-based, Macaca mulatta; design: dose 10 mg/kg; details: rhesus monkey, in vivo
A2780 = experiment: Antitumor activity against A2780 cells xenografted in mouse at 40 mg/kg, po QD for 10 days; assay type: functional; details: A2780, 240 h
[7] = Cmax in dog at 5 mg/kg, po; assay type: ADME, organism-based, Canis lupus familiaris; design: dose 5 mg/kg, route oral; details: in vivo
[8] = AUC in mouse at 40 mg/kg; assay type: ADME, organism-based; design: dose 40 mg/kg; details: plasma
[9] = Tmax in rat at 10 mg/kg; assay type: ADME, organism-based; design: dose 10 mg/kg; details: in vivo
[10] = Cmax in mouse at 40 mg/kg; assay type: ADME, organism-based; design: dose 40 mg/kg; details: in vivo
[11] = Tmax in monkey at 10 mg/kg; assay type: ADME, organism-based, Macaca mulatta; design: dose 10 mg/kg; details: rhesus monkey, in vivo
[12] = Cmax in rat at 10 mg/kg; assay type: ADME, organism-based; design: dose 10 mg/kg; details: in vivo
[13] = Tmax in mouse at 40 mg/kg; assay type: ADME, organism-based; design: dose 40 mg/kg; details: in vivo
Homo sapiens = species on record: Homo sapiens; experiment: Protein binding in human; assay type: ADME, organism-based; details: in vivo
Canis familiaris = species on record: Canis familiaris; experiment: Protein binding in dog; assay type: ADME, organism-based, Canis lupus familiaris; details: in vivo
Rattus norvegicus = species on record: Rattus norvegicus; experiment: Protein binding in rat; assay type: ADME, organism-based; details: in vivo
[14] = AUC in dog at 5 mg/kg; assay type: ADME, organism-based, Canis lupus familiaris; design: dose 5 mg/kg; details: plasma
[15] = AUC in rat at 10 mg/kg; assay type: ADME, organism-based; design: dose 10 mg/kg; details: plasma

Chain of Glycogen synthase kinase-3 beta (P49841 whole entry): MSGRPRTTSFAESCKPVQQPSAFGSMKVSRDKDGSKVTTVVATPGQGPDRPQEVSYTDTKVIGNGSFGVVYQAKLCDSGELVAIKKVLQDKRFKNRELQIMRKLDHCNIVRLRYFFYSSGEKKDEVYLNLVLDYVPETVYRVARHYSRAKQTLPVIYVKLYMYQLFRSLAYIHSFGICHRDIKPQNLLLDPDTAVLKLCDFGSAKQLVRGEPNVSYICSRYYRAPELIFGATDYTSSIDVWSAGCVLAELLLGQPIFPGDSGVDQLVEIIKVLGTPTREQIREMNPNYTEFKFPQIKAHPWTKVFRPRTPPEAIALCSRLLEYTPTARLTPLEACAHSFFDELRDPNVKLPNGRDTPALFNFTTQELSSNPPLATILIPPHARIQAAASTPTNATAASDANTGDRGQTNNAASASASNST

Brc1cnn2c(NCc3cccnc3)cc(C3CC3)nc12
pIC50 [1]: 7.35
pIC50 [2]: 5.95
pIC50 [3]: 5.82

COc1cc(NCc2cccnc2)n2ncc(Br)c2n1
pIC50 [1]: 7.46
pIC50 [2]: 5.85
pIC50 [3]: 5.70

CC(=O)NCCSc1cnn2c(NCc3cccnc3)cc(-c3ccccc3)nc12
pIC50 [1]: 8.70
pIC50 [2]: 7.47
pIC50 [4]: 4.92

CCCNc1cc(-c2ccccc2Cl)nc2c(Br)cnn12
pIC50 [1]: 6.79

CC(O)c1cc(NCc2cccnc2)n2ncc(Br)c2n1 (stereo unspecified)
pIC50 [1]: 7.42
pIC50 [2]: 6.30
pIC50 [3]: 5.85

CCc1cc(NCc2cccnc2)n2ncc(Br)c2n1
pIC50 [1]: 7.74
pIC50 [2]: 6.04
pIC50 [3]: 6.28

CN(C)Cc1cnn2c(NCc3cccnc3)cc(-c3ccccc3)nc12
pIC50 [1]: 4.47

FC(F)(F)Cc1cnn2c(NCc3cccnc3)cc(-c3ccccc3)nc12
pIC50 [1]: 6.15

c1ccc(-c2cc(NCc3cccnc3)n3nccc3n2)cc1
pIC50 [1]: 6.60

CS(=O)(=O)c1ccc(Nc2cc(-c3ccccc3Cl)nc3c(Br)cnn23)cc1
pIC50 [1]: 6.46
pIC50 [2]: 6.35
pIC50 [3]: 6.05

CC(=O)c1cnn2c(NCc3cccnc3)cc(-c3ccccc3)nc12
pIC50 [1]: < 4.30

Fc1ccccc1-c1cc(Nc2ccccc2)n2ncc(Br)c2n1
pIC50 [1]: 6.39
pIC50 [2]: 4.88

c1ccc(-c2cc(NCc3cccnc3)n3ncc(C4CC4)c3n2)cc1
pIC50 [1]: 7.15

Brc1cnn2c(NCc3cccnc3)cc(-c3ccccc3)nc12
pIC50 [1]: 7.96
pIC50 [2]: 6.24
pIC50 [4]: 6.43

Brc1cnn2c(NCc3cccnc3)cc(C3CCNCC3)nc12
pIC50 [1]: 7.80
pIC50 [2]: 6.39
pIC50 [3]: 6.80

OCCSc1cnn2c(NCc3cccnc3)cc(-c3ccccc3)nc12
pIC50 [1]: 7.52

OC(c1cnn2c(NCc3cccnc3)cc(-c3ccccc3)nc12)C(F)(F)F (stereo unspecified)
pIC50 [1]: 5.47

Brc1cnn2c(NCc3cccnc3)cc(-c3ccco3)nc12
pIC50 [1]: 8.10
pIC50 [2]: 6.51
pIC50 [3]: 4.82

CC(Nc1cc(-c2ccccc2)nc2c(Br)cnn12)c1cccnc1 (stereo unspecified)
pIC50 [1]: 5.52

Cc1cc(NCc2cccnc2)n2ncc(Br)c2n1
pIC50 [1]: 7.22
pIC50 [2]: 5.45
pIC50 [3]: 5.74

Fc1ccccc1-c1cc(NCc2ccccc2)n2ncc(Br)c2n1
pIC50 [1]: 6.52
pIC50 [2]: 4.82

Nc1cc(-c2ccccc2)nc2c(Br)cnn12
pIC50 [1]: 6.60

FC(F)(F)c1cnn2c(NCc3cccnc3)cc(-c3ccccc3)nc12
pIC50 [1]: 7.02

CCOC(=O)c1cc(NCc2cccnc2)n2ncc(Br)c2n1
pIC50 [1]: 7.05
pIC50 [2]: 6.10
pIC50 [3]: 5.54

Cc1cnn2c(NCc3cccnc3)cc(-c3ccccc3)nc12
pIC50 [1]: 7.14
pIC50 [4]: 5.85

Clc1ccccc1-c1cc(NCOc2cccnc2)n2ncc(Br)c2n1
pIC50 [1]: 7.96
pIC50 [2]: 7.46
pIC50 [3]: 6.77

Clc1cccc(-c2cc(NCc3ccncc3)n3nccc3n2)c1Cl
pIC50 [1]: 6.30

Brc1cnn2c(NCOc3cccnc3)cc(-c3ccccc3)nc12
pIC50 [1]: 7.47
pIC50 [2]: 6.22
pIC50 [3]: 6.85

CNc1cc(-c2ccccc2Cl)nc2c(Br)cnn12
pIC50 [1]: 7.70
pIC50 [2]: 6.61
pIC50 [3]: 5.74

CSc1cnn2c(NCc3cccnc3)cc(-c3ccccc3)nc12
pIC50 [1]: 8.15
pIC50 [2]: 5.74
pIC50 [4]: 6.05

CCCCc1cnn2c(NCc3cccnc3)cc(-c3ccccc3)nc12
pIC50 [1]: 5.92

N#CCc1cnn2c(NCc3cccnc3)cc(-c3ccccc3)nc12
pIC50 [1]: 7.31
pIC50 [2]: 5.96
pIC50 [4]: 5.88

c1ccc(Cc2cnn3c(NCc4cccnc4)cc(-c4ccccc4)nc23)cc1
pIC50 [1]: 4.80

Clc1ccccc1-c1cc(NCc2cccnc2)n2ncc(Br)c2n1
pIC50 [1]: 8.40 and 8.52
pIC50 [2]: 7.27
pIC50 [3]: 6.30

Brc1cnn2c(NCc3cccnc3)cc(C3CCCNC3)nc12 (stereo unspecified)
pIC50 [1]: 8.10
pIC50 [2]: 6.74
pIC50 [3]: 7.22

Clc1ccccc1-c1cc(NC2CC2)n2ncc(Br)c2n1
pIC50 [1]: 6.08

C#Cc1cnn2c(NCc3cccnc3)cc(-c3ccccc3)nc12
pIC50 [1]: 7.32
pIC50 [2]: 5.01
pIC50 [4]: 5.13

CNc1cc(NCc2cccnc2)n2ncc(Br)c2n1
pIC50 [1]: 7.37
pIC50 [2]: 5.34
pIC50 [3]: 5.92

C=Cc1cnn2c(NCc3cccnc3)cc(-c3ccccc3)nc12
pIC50 [1]: 7.05

Brc1cnn2c(NCc3cccnc3)cc(C3CCCCC3)nc12
pIC50 [1]: 8.40
pIC50 [2]: 7.57
pIC50 [3]: 6.70

CCc1cnn2c(NCc3cccnc3)cc(-c3ccccc3)nc12
pIC50 [1]: 8.10
pIC50 [2]: 5.55
pIC50 [4]: 5.70

CCCc1cnn2c(NCc3cccnc3)cc(-c3ccccc3)nc12
pIC50 [1]: 6.05

COc1cnn2c(NCc3cccnc3)cc(-c3ccccc3)nc12
pIC50 [1]: 5.96

Fc1ccccc1-c1cc(NCOc2cccnc2)n2ncc(Br)c2n1
Activity (Mus musculus): 90%
Activity (Rhesus monkey): 89%
AUC [5]: 43 µM·h
Cmax [6]: 3.2 µM
inhibition in vivo at 40 mg/kg (A2780): 96%
Cmax [7]: 2.58 µM
AUC [8]: 17.9 µM·h
Tmax [9]: 2 h
Cmax [10]: 6.81 µM
Tmax [11]: 3.3 h
Cmax [12]: 2.29 µM
Tmax [13]: 2 h
Activity (Homo sapiens): 95%
Activity (Canis familiaris): 93%
Activity (Rattus norvegicus): 85%
AUC [14]: 2.44 µM·h
pIC50 [1]: 7.89
AUC [15]: 16.4 µM·h
pIC50 [2]: 6.89
pIC50 [3]: 6.68

CSc1cc(NCc2cccnc2)n2ncc(Br)c2n1
pIC50 [1]: 7.42
pIC50 [2]: 5.93
pIC50 [3]: 6.00

CC(C)c1cc(NCc2cccnc2)n2ncc(Br)c2n1
pIC50 [1]: 7.77
pIC50 [2]: 6.38
pIC50 [3]: 6.02

Brc1cnn2c(NCc3cccnc3)cc(-c3cccs3)nc12
pIC50 [1]: 7.89
pIC50 [2]: 6.32
pIC50 [3]: 6.12

c1ccc(-c2cc(NCc3cccnc3)n3ncc(-c4ccccc4)c3n2)cc1
pIC50 [1]: < 4.30

C#CCc1cnn2c(NCc3cccnc3)cc(-c3ccccc3)nc12
pIC50 [1]: 6.08

O=[N+]([O-])c1cnn2c(NCc3cccnc3)cc(-c3ccccc3)nc12
pIC50 [1]: < 4.30

Cc1ccccc1-c1cc(NCc2ccc[n+]([O-])c2)n2ncc(Br)c2n1
pIC50 [1]: 7.31

OCc1cnn2c(NCc3cccnc3)cc(-c3ccccc3)nc12
pIC50 [1]: 5.66

Brc1cnn2c(NCc3cccnc3)cc(N3CCNCC3)nc12
pIC50 [1]: 6.68

CC(C)c1cnn2c(NCc3cccnc3)cc(-c3ccccc3)nc12
pIC50 [1]: 6.43
